Test [1] relates to bacterial strains that express the class D cephalosporinase OXA-15. Description: Synergy MIC / standard BLI potentiation MIC assay, strains expressing OXA-15. The format is cell-based, E. coli. To be noted: in presence of a β-lactam; comparator Avibactam (CCC). As for the experimental part: (§1) Unless otherwise indicated, the activity of the BLI compounds can be described by the MIC value obtained from a Synergy MIC assay or a BLI potentiation assay (e.g as described herein), both of which are run in the presence of a β-lactam.
(§2) The experimental protocol was performed according to Clinical and Laboratory Standards Institute (CLSI) guidelines with modifications as described below (CLSI guidelines can be derived from the CLSI document M07-A9 published in January 2012: “Methods for Dilution Antimicrobial Susceptibility Tests for Bacteria That Grow Aerobically; Approved Standard-Ninth Edition”).
(§3) To prepare for MIC testing, frozen glycerol stocks of clinical isolates (Klebsiella pneumoniae, Eschericia coli, Enterobacter spp, Citrobacter spp, or Pseudomonas aeruginosa) were used to streak for isolated colonies on rich, non-selective, tryptic soy agar containing 5% sheep's blood (TSAB). Frozen glycerol stocks of laboratory engineered, isogenic E. coli strains, which contain cloned β-lactamase expressing plasmids were used to streak for isolated colonies on rich, selective LB agar supplemented with 25 μg/mL tetracycline to maintain the plasmid. All strains were incubated at 37° C. for 18-24 hrs.
(§4) On the day of testing, primary cultures were started by scraping off 5-10 colonies from the TSAB plates containing clinical strains or the tetracycline supplemented LB plates containing engineered strains. The clinical strain material was suspended in ˜5 mL of cation adjusted Mueller Hinton Broth (CAMHB) in 14 mL culture tubes. The engineered strain material was suspended in CAMHB (supplemented with 25 μg/mL tetracycline) in 14 mL culture tubes. All strains were incubated at 37° C. with aeration (200 rpm) for ˜2 hrs until the optical density at 600 nm (OD600) was ≧0.1.
(§5) The two compound components of the assay were each diluted in CAMHB and added to the 96-well broth microdilution assay plates. 50 μL of the β-lactam was added to each well of the assay plate in 2-fold dilutions with final concentrations ranging from 128 to 0.13 μg/mL. 25 μL of the BLI compound was added to all wells in the broth microdilution plates at a final concentration of 4 μg/mL. Inoculum cultures were prepared by standardizing the primary cultures to OD600=0.1 and then adding 20 μL of the adjusted primary culture per 1 mL CAMHB for clinical strains or CAMHB (supplemented with tetracycline at 100 μg/mL) for engineered strains, so that the final inoculum density was ˜10^5 colony forming units per milliliter. Diluted inoculum cultures were used to inoculate 25 μL per well in 96-well broth microdilution assay plates. The final volume of each well was 100 μL and contained a β-lactam at different concentrations, a BLIcompound at 4 μg/mL concentration, the bacterial culture at an OD600 of approximately 0.001 and when necessary tetracycline at 25 μg/mL.
(§6) Plates were incubated for 18-20 hours at 37° C. with aeration (200 rpm). Following incubation, growth was confirmed visually placing plates over a viewing apparatus (stand with a mirror underneath) and then OD600 was measured using a SpectraMax 340PC384 plate reader (Molecular Devices, Sunnyvale, Calif.). Growth was defined as turbidity that could be detected with the naked eye or achieving minimum OD600 of 0.1. MIC values were defined as the lowest concentration producing no visible turbidity.
(§7) The synergy MIC (sMIC) assay determines the concentration of the BLI required to potentiate the activity of a fixed concentration of a β-lactam antibiotic against β-lactamase producing bacterial strains. The experimental protocol was performed according to Clinical and Laboratory Standards Institute (CLSI) guidelines with modifications as described below (CLSI guidelines can be derived from the CLSI document M07-A9 published in January 2012: “Methods for Dilution Antimicrobial Susceptibility Tests for Bacteria That Grow Aerobically; Approved Standard-Ninth Edition”). […]

Test [2] relates to bacterial strains that express KPC β-lactamases. In words: Synergy MIC / standard BLI potentiation MIC assay, strains expressing KPC β-lactamases. Particulars: more active for at least one KPC strain and/or better spectrum; comparator Avibactam. The format is cell-based, isogenic E. coli and clinical isolates. As for the experimental part: as §1, §2, §3, §4, §5, §6, §7

The values that follow come from patent US8933233B2, “1,3,4-oxadiazole and 1,3,4-thiadiazole β-lactamase inhibitors” (priority 2012, dated 2015).

Structures can show the parent of a compound that is named as a salt.

Consider `O=C1N2C[C@@H](CC[C@H]2c2nnc(C3CNC3)o2)N1OS(=O)(=O)O` [Compound 708, (2S,5R)-2-(5-(azetidin-3-yl)-1,3,4-oxadiazol-2-yl)-7-oxo-1,6-diazabicyclo[3.2.1]octan-6-yl hydrogen sulfate], for which, in test [1], the “activity against bacterial strains that express OXA-15, compared with Avibactam” value is listed as “more active than Avibactam”. For the same compound, the “activity and/or spectrum of activity against bacterial strains that express KPC β-lactamases, compared with Avibactam” value in test [2] is “more active than Avibactam”.
For the compound `N=C(N)NCC1(c2nnc([C@@H]3CC[C@@H]4CN3C(=O)N4OS(=O)(=O)O)o2)CC1` [Compound 723, (2S,5R)-2-(5-(1-(guanidinomethyl)cyclopropyl)-1,3,4-oxadiazol-2-yl)-7-oxo-1,6-diazabicyclo[3.2.1]octan-6-yl hydrogen sulfate], in test [1], the “activity against bacterial strains that express OXA-15, compared with Avibactam” value is on record as “more active than Avibactam”. In test [2], the “activity and/or spectrum of activity against bacterial strains that express KPC β-lactamases, compared with Avibactam” value is on record as “more active than Avibactam”.
For `N[C@H]1CC[C@@H](c2nnc([C@@H]3CC[C@@H]4CN3C(=O)N4OS(=O)(=O)O)o2)C1` [Compound 768, (2S,5R)-2-(5-((1R,3S)-3-aminocyclopentyl)-1,3,4-oxadiazol-2-yl)-7-oxo-1,6-diazabicyclo[3.2.1]octan-6-yl hydrogen sulfate], the “activity against bacterial strains that express OXA-15, compared with Avibactam” value in test [1] is recorded as “more active than Avibactam”. Also, in test [2], the “activity and/or spectrum of activity against bacterial strains that express KPC β-lactamases, compared with Avibactam” value is listed as “more active than Avibactam”.
As for `N=C(N)NCC(O)Cc1nnc([C@@H]2CC[C@@H]3CN2C(=O)N3OS(=O)(=O)O)o1` (stereo partly drawn) [Compound 730, (2S,5R)-2-(5-(3-guanidino-2-hydroxypropyl)-1,3,4-oxadiazol-2-yl)-7-oxo-1,6-diazabicyclo[3.2.1]octan-6-yl hydrogen sulfate], the “activity against bacterial strains that express OXA-15, compared with Avibactam” value in test [1] is “more active than Avibactam”. For the same compound, in test [2], the “activity and/or spectrum of activity against bacterial strains that express KPC β-lactamases, compared with Avibactam” value was “more active than Avibactam”.
Consider `CNCCc1nnc([C@@H]2CC[C@@H]3CN2C(=O)N3OS(=O)(=O)O)o1` [Compound 722, (2S,5R)-2-(5-(2-(methylamino)ethyl)-1,3,4-oxadiazol-2-yl)-7-oxo-1,6-diazabicyclo[3.2.1]octan-6-yl hydrogen sulfate], for which, in test [1], the “activity against bacterial strains that express OXA-15, compared with Avibactam” value is “more active than Avibactam”. In addition, the “activity and/or spectrum of activity against bacterial strains that express KPC β-lactamases, compared with Avibactam” value in test [2] is “more active than Avibactam”.
For the compound `O=C1N2C[C@@H](CC[C@H]2c2nnc(CC3CCNC3)o2)N1OS(=O)(=O)O` (stereo partly drawn) [Compound 764, (2S,5R)-7-oxo-2-(5-(pyrrolidin-3-ylmethyl)-1,3,4-oxadiazol-2-yl)-1,6-diazabicyclo[3.2.1]octan-6-yl hydrogen sulfate], the “activity against bacterial strains that express OXA-15, compared with Avibactam” value in test [1] was “more active than Avibactam”. Moreover, the “activity and/or spectrum of activity against bacterial strains that express KPC β-lactamases, compared with Avibactam” value in test [2] is “more active than Avibactam”.
Consider `N[C@H]1C[C@@H](CCc2nnc([C@@H]3CC[C@@H]4CN3C(=O)N4OS(=O)(=O)O)o2)C1` [Compound 754, (2S,5R)-2-(5-(2-((1s,3S)-3-aminocyclobutyl)ethyl)-1,3,4-oxadiazol-2-yl)-7-oxo-1,6-diazabicyclo[3.2.1]octan-6-yl hydrogen sulfate], for which the “activity against bacterial strains that express OXA-15, compared with Avibactam” value in test [1] is on record as “more active than Avibactam”. Also, the “activity and/or spectrum of activity against bacterial strains that express KPC β-lactamases, compared with Avibactam” value in test [2] is recorded as “more active than Avibactam”.
Regarding `N=C(N)N1CC(NCc2nnc([C@@H]3CC[C@@H]4CN3C(=O)N4OS(=O)(=O)O)o2)C1` [Compound 746, (2S,5R)-2-(5-(((1-carbamimidoylazetidin-3-yl)amino)methyl)-1,3,4-oxadiazol-2-yl)-7-oxo-1,6-diazabicyclo[3.2.1]octan-6-yl hydrogen sulfate], the “activity against bacterial strains that express OXA-15, compared with Avibactam” value in test [1] is recorded as “more active than Avibactam”. In addition, in test [2], the “activity and/or spectrum of activity against bacterial strains that express KPC β-lactamases, compared with Avibactam” value was “more active than Avibactam”.
As to `N[C@H]1C[C@H](c2nnc([C@@H]3CC[C@@H]4CN3C(=O)N4OS(=O)(=O)O)s2)C1` [Compound 783, (2S,5R)-2-(5-((1r,3S)-3-aminocyclobutyl)-1,3,4-thiadiazol-2-yl)-7-oxo-1,6-diazabicyclo[3.2.1]octan-6-yl hydrogen sulfate], the “activity against bacterial strains that express OXA-15, compared with Avibactam” value in test [1] is “more active than Avibactam”. Also, the “activity and/or spectrum of activity against bacterial strains that express KPC β-lactamases, compared with Avibactam” value in test [2] is on record as “more active than Avibactam”.
Take `O=C1N2C[C@@H](CC[C@H]2c2nnc(CCNC3CNC3)o2)N1OS(=O)(=O)O` [Compound 745, (2S,5R)-2-(5-(2-(azetidin-3-ylamino)ethyl)-1,3,4-oxadiazol-2-yl)-7-oxo-1,6-diazabicyclo[3.2.1]octan-6-yl hydrogen sulfate]: in test [1], the “activity against bacterial strains that express OXA-15, compared with Avibactam” value is “more active than Avibactam”. For the same compound, the “activity and/or spectrum of activity against bacterial strains that express KPC β-lactamases, compared with Avibactam” value in test [2] is on record as “more active than Avibactam”.
On to `N=C(N)N[C@H]1C[C@@H](c2nnc([C@@H]3CC[C@@H]4CN3C(=O)N4OS(=O)(=O)O)s2)C1` [Compound 784, (2S,5R)-2-(5-((1s,3R)-3-guanidinocyclobutyl)-1,3,4-thiadiazol-2-yl)-7-oxo-1,6-diazabicyclo[3.2.1]octan-6-yl hydrogen sulfate], for which the “activity against bacterial strains that express OXA-15, compared with Avibactam” value in test [1] was “more active than Avibactam”. Also, in test [2], the “activity and/or spectrum of activity against bacterial strains that express KPC β-lactamases, compared with Avibactam” value is “more active than Avibactam”.
On to `N=C(N)NC[C@@H](O)c1nnc([C@@H]2CC[C@@H]3CN2C(=O)N3OS(=O)(=O)O)o1` [Compound 731, (2S,5R)-2-(5-((R)-2-guanidino-1-hydroxyethyl)-1,3,4-oxadiazol-2-yl)-7-oxo-1,6-diazabicyclo[3.2.1]octan-6-yl hydrogen sulfate], for which the “activity against bacterial strains that express OXA-15, compared with Avibactam” value in test [1] is on record as “more active than Avibactam”. Also, the “activity and/or spectrum of activity against bacterial strains that express KPC β-lactamases, compared with Avibactam” value in test [2] is “more active than Avibactam”.
As for `O=C1N2C[C@@H](CC[C@H]2c2nnc(CN[C@@H]3CCNC3)o2)N1OS(=O)(=O)O` [Compound 766, (2S,5R)-7-oxo-2-(5-(((R)-pyrrolidin-3-ylamino)methyl)-1,3,4-oxadiazol-2-yl)-1,6-diazabicyclo[3.2.1]octan-6-yl hydrogen sulfate], in test [1], the “activity against bacterial strains that express OXA-15, compared with Avibactam” value is “more active than Avibactam”. The “activity and/or spectrum of activity against bacterial strains that express KPC β-lactamases, compared with Avibactam” value in test [2] was “more active than Avibactam”.
On to `NC1CCN(CCc2nnc([C@@H]3CC[C@@H]4CN3C(=O)N4OS(=O)(=O)O)o2)CC1` [Compound 775, (2S,5R)-2-(5-(2-(4-aminopiperidin-1-yl)ethyl)-1,3,4-oxadiazol-2-yl)-7-oxo-1,6-diazabicyclo[3.2.1]octan-6-yl hydrogen sulfate], for which, in test [2], the “activity and/or spectrum of activity against bacterial strains that express KPC β-lactamases, compared with Avibactam” value was “more active than Avibactam”.
Consider `NC1CCN(c2nnc([C@@H]3CC[C@@H]4CN3C(=O)N4OS(=O)(=O)O)o2)CC1` [Compound 773, (2S,5R)-2-(5-(4-aminopiperidin-1-yl)-1,3,4-oxadiazol-2-yl)-7-oxo-1,6-diazabicyclo[3.2.1]octan-6-yl hydrogen sulfate], for which the “activity against bacterial strains that express OXA-15, compared with Avibactam” value in test [1] is given as “more active than Avibactam”.
